{"source": "the Kinase Knowledgebase extract (Sharma et al. 2016)"}
{"target": "EGFR (UniProt P00533)", "sequence (P00533 whole entry, looked up)": "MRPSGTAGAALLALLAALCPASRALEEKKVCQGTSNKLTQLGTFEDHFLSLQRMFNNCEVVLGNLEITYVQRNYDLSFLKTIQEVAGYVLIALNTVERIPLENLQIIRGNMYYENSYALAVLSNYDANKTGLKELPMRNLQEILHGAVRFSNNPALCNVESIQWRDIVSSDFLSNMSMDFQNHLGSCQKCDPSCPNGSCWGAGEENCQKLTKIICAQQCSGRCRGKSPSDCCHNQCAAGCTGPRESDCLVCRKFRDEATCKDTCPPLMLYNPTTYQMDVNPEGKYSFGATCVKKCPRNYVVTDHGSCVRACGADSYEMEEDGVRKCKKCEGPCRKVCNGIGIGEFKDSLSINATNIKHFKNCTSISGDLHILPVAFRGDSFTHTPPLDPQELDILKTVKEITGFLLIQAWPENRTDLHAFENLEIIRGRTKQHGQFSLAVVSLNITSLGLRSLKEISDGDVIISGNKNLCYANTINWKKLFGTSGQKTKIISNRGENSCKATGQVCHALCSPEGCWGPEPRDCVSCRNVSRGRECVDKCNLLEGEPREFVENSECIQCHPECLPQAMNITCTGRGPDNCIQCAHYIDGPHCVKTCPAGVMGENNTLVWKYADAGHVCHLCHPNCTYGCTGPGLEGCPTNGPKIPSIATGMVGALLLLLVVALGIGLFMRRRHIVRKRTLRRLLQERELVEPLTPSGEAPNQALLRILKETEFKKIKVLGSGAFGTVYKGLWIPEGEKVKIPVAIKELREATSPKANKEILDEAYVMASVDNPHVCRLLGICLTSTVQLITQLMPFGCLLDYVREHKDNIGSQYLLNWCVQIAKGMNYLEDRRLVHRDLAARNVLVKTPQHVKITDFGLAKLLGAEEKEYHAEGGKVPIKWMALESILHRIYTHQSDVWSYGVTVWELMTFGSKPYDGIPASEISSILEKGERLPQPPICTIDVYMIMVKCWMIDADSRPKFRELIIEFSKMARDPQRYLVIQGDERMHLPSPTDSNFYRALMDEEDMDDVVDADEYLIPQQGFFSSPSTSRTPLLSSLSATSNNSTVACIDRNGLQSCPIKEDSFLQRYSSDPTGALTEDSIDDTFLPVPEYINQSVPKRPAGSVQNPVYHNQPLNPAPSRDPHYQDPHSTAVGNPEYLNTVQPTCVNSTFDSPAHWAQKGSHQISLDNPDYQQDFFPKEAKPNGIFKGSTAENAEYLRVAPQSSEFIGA", "units": {"IC50": "mg/L"}}
{"smiles": "COc1cc(Nc2ncnc(-c3cccnc3Cl)n2)cc(OC)c1OCCN1CCOCC1", "IC50": "> 4.5"}
{"smiles": "COc1cc(Nc2ncnc(Nc3ccc(C)cc3)n2)cc(OC)c1OC", "IC50": "< 0.4"}
{"smiles": "COc1cc(Nc2ncnc(Nc3ccc(Cl)c4ccccc34)n2)cc(OC)c1OC", "IC50": "< 0.4"}
{"smiles": "O=C(O)Cc1cccc(Nc2ncnc(-c3cccnc3Nc3ccccc3)n2)c1", "IC50": "0.4 to 2.4"}
{"smiles": "COc1cc(Nc2ncnc(-c3cccnc3Nc3cccc(C(N)=O)c3)n2)cc(OC)c1OC", "IC50": "> 4.5"}
{"smiles": "COCCOc1ccc(Nc2ncnc(-c3ccccc3)n2)cc1", "IC50": "> 4.5"}
{"smiles": "COc1ccc(Nc2ncnc(NCCC#N)n2)cc1OC", "IC50": "> 4.5"}
{"smiles": "COc1cc(Nc2ncnc(-n3c(NC(CO)c4ccccc4)nc4ccccc43)n2)cc(OC)c1OC", "note": "(stereo not given)", "IC50": "> 4.5"}
{"smiles": "COc1cc(Nc2ncnc(Nc3ccc(C(C)C)cc3)n2)cc(OC)c1OC", "IC50": "> 4.5"}
{"smiles": "COc1cc(Nc2ncnc(-c3ccncc3)n2)cc(OC)c1OC", "IC50": "> 4.5"}
{"smiles": "CN(C)CCNc1ncnc(Nc2ccc3c(cnn3Cc3ccccc3)c2)n1", "IC50": "0.4 to 2.4"}
{"smiles": "OCCCNc1ncnc(-c2ccccc2)n1", "IC50": "> 4.5"}
{"smiles": "COc1cc(Nc2ncnc(-n3c(NCc4cccnc4)nc4ccccc43)n2)cc(OC)c1OC", "IC50": "> 4.5"}
{"smiles": "NCCCNc1ncnc(-c2ccccc2)n1", "IC50": "> 4.5"}
{"smiles": "COc1ccc(Nc2ncnc(Nc3ccc(N(C)C)cc3)n2)cc1OC", "IC50": "> 4.5"}
{"smiles": "COc1cc(Nc2ncnc(N3CCCCC3)n2)cc(OC)c1OC", "IC50": "> 4.5"}
{"smiles": "COc1cc(Nc2ncnc(-n3c(NCc4nccs4)nc4ccccc43)n2)cc(OC)c1OC", "IC50": "2.4 to 3.5"}
{"smiles": "COc1cc(Nc2ncnc(-c3ccc(N(C)C)nc3)n2)cc(OC)c1OC", "IC50": "> 4.5"}
{"smiles": "CN1CCN(Cc2cccc(Nc3ncnc(Nc4cccc5ccccc45)n3)c2)CC1", "IC50": "> 4.5"}
{"smiles": "CCN(CC)CCCCNc1cc(-c2ncnc(Nc3cc(OC)c(OC)c(OC)c3)n2)ccn1", "IC50": "> 4.5"}
{"smiles": "COc1cc(Nc2ncnc(-n3c(NC(C)c4ccc(F)cc4)nc4ccccc43)n2)cc(OC)c1OC", "note": "(stereo not given)", "IC50": "> 4.5"}
{"smiles": "COc1cc(Nc2ncnc(Nc3ccc(Br)cc3F)n2)cc(OC)c1OC", "IC50": "< 0.4"}
{"smiles": "COc1cc(Nc2ncnc(Nc3ccc4cn[nH]c4c3)n2)cc(OC)c1OC", "IC50": "0.4 to 2.4"}
{"smiles": "COc1cc(Nc2ncnc(Nc3ccc4[nH]ncc4c3)n2)cc(OC)c1OC", "IC50": "< 0.4"}
{"smiles": "COc1cc(Nc2ncnc(-n3c(=O)sc4ccccc43)n2)cc(OC)c1OC", "IC50": "> 4.5"}
{"smiles": "COc1cc(Nc2ncnc(-n3cc(C#N)c4ccccc43)n2)cc(OC)c1OC", "IC50": "> 4.5"}
{"smiles": "COc1ccc(Nc2ncnc(NCc3ncc(C(F)(F)F)cc3Cl)n2)cc1OC", "IC50": "2.4 to 3.5"}
{"smiles": "CCOc1ccc(Nc2ncnc(-n3c(N)nc4ccccc43)n2)cc1OCC", "IC50": "2.4 to 3.5"}
{"smiles": "Nc1nc2ccccc2n1-c1ncnc(Nc2cccc(CC(=O)O)c2)n1", "IC50": "> 4.5"}
{"smiles": "O=c1[nH]c2ccccc2n1-c1ncnc(Nc2cc(Cl)cc(Cl)c2)n1", "IC50": "> 4.5"}
{"smiles": "COC(=O)c1ccc(Nc2ncnc(-c3ccccc3)n2)cc1", "IC50": "> 4.5"}
{"smiles": "CCOC(=O)Cc1ccc(Nc2ncnc(Nc3cc(OC)c(OC)c(OC)c3)n2)cc1", "IC50": "< 0.4"}
{"smiles": "COc1cc(Nc2ncnc(-c3cccnc3NCC(C)c3ccccc3)n2)cc(OC)c1OC", "note": "(stereo not given)", "IC50": "> 4.5"}
{"smiles": "Cc1ccc2c(c1)CCCN2c1ncnc(NCc2ccccn2)n1", "IC50": "> 4.5"}
{"smiles": "Nc1nc2ccccc2n1-c1ncnc(Cl)n1", "IC50": "> 4.5"}
{"smiles": "NC(=O)c1ccc(Nc2ncnc(-n3c(N)nc4ccccc43)n2)cc1", "IC50": "2.4 to 3.5"}
{"smiles": "c1ccc(COc2cccc(Nc3ncnc(-c4cccs4)n3)c2)cc1", "IC50": "> 4.5"}
{"smiles": "COc1cc(Nc2ncnc(Nc3ccc(NC(C)=O)c(C(F)(F)F)c3)n2)cc(OC)c1OC", "IC50": "2.4 to 3.5"}
{"smiles": "COc1cc(Nc2ncnc(-n3c(N[C@@H](C)c4ccccc4)nc4ccccc43)n2)cc(OC)c1OC", "IC50": "2.4 to 3.5"}
{"smiles": "COc1cc(Nc2ncnc(Nc3cccc(Oc4ccccc4)c3)n2)cc(OC)c1OC", "IC50": "0.4 to 2.4"}
{"smiles": "COc1ccc(CNc2nc3ccccc3n2-c2ncnc(Nc3cc(OC)c(OC)c(OC)c3)n2)cc1OC", "IC50": "2.4 to 3.5"}
{"smiles": "COc1cc(Nc2ncnc(Nc3cccc4ccccc34)n2)cc(OC)c1OC", "IC50": "< 0.4"}
{"smiles": "COc1ccc(Nc2ncnc(-c3cccs3)n2)cc1OC", "IC50": "> 4.5"}
{"smiles": "COc1cc(Nc2ncnc(N(C/C=C/c3ccccc3)c3ccc(Cl)cc3)n2)cc(OC)c1OC", "IC50": "< 0.4"}
{"smiles": "Fc1cccc(Nc2ncnc(-c3cccs3)n2)c1", "IC50": "> 4.5"}
{"smiles": "COc1ccc(CCNc2ncnc(N3CCCc4cc(C)ccc43)n2)cc1OC", "IC50": "> 4.5"}
{"smiles": "CC(C)(C)OC(=O)NCc1cccc(Nc2ncnc(Nc3cc(-c4ccco4)n[nH]3)n2)c1", "IC50": "0.4 to 2.4"}
{"smiles": "COc1cc(Nc2ncnc(N(CC(=O)OC(C)(C)C)c3ccc(Cl)cc3)n2)cc(OC)c1OC", "IC50": "0.4 to 2.4"}
{"smiles": "COc1cc(Nc2ncnc(-n3ccc4ccc(F)cc43)n2)cc(OC)c1OC", "IC50": "> 4.5"}
{"smiles": "CN(c1ccccc1)c1ncnc(-n2c(N)nc3ccccc32)n1", "IC50": "2.4 to 3.5"}
{"smiles": "CC[C@H]1CN(c2ccc(-c3ncnc(Nc4cc(OC)c(OC)c(OC)c4)n3)cn2)CCN1", "IC50": "> 4.5"}
{"smiles": "CNc1ncnc(Nc2cc(OC)c(OC)c(OC)c2)n1", "IC50": "> 4.5"}
{"smiles": "COc1ccc(Nc2ncnc(Nc3cccc(C)c3)n2)cc1OC", "IC50": "< 0.4"}
{"smiles": "O=c1[nH]c2ccccc2n1-c1ncnc(Nc2nccc3ccccc23)n1", "IC50": "0.4 to 2.4"}
{"smiles": "CCOc1cccc(Nc2ncnc(Nc3ccc(OC)c(OC)c3)n2)c1", "IC50": "> 4.5"}
